Data as given in a melting point compilation (Tetko et al.; mined from patent text by program, amines drawn as free bases though some values may be those of a salt).

Row | SMILES | melting point [°C]
1 | C[C@@H](Nc1ncnc2[nH]c(-c3ccc(CNC(=O)CCN4CCCCC4)cc3)cc12)c1ccccc1 | 140
2 | CC1(C)C(=O)NCCN1C(=O)C(N)Cc1ccccc1 (stereo not drawn) | 70 to 73
3 | OCCN(Cc1ccccc1)c1nc2ccccc2s1 | 95 to 96
4 | C[C@H](NC(=O)CC#N)C(=O)N1CCC[C@H]1C(=O)Nc1ccccc1 | 183 to 184
5 | C=Cc1nc(C(C)C)c(Sc2cc(Cl)cc(Cl)c2)n1C | 124 to 125
6 | COc1cccc([C@H]2O[C@H](CC(=O)NCCCOc3cccc(C(=O)O)c3)C(=O)N(CC(C)(C)CO)c3ccc(Cl)cc32)c1OC | 132 to 134
7 | COc1cccc(C(=C/C=C/C(=O)NCCCCc2cccnc2)c2cccc(OC)c2)c1 | 69 to 73
8 | CCCn1nc2c(N)nc3ccccc3c2c1CCCc1cc(C)no1 | 183 to 184
9 | OCCc1ccc(-c2ccc(F)cc2F)c(F)c1 | 44 to 45
10 | Cc1cc(=O)oc2nn(Cc3cccnc3)c(C)c12 | 191 to 193
11 | CN1C(=O)Cc2cc(C(=O)[C@H]3C[C@H]3C(=O)O)ccc21 (relative stereo) | 237 to 240
12 | Nc1cc(Cl)cc(Cl)c1C(=O)NCc1cccc(Cl)c1 | 167 to 171
13 | Cc1nc2c(cc1C(=O)O)CCCCC2 | 167 to 169
14 | COc1cc2c(c3c1OC(C)(C)C3)C(c1cccc(C#N)c1)=NCC2(C)C | 178 to 180
15 | C/C(Br)=C(\Br)c1cn(-c2c(Cl)cc(C(F)(F)F)cc2Cl)nc1C#N | 134 to 135
16 | Cc1cc(Nc2ncnc3ccc(-n4ccnc4)cc23)ccc1OCc1ccccn1 | 208 to 211
17 | O=C1NCC(Cc2ccccc2F)O1 (stereo not drawn) | 113 to 114
18 | CC(C)(O)c1cnn2c(-c3cccc(-c4ccccc4C#N)c3)cnc2n1 | 166
19 | O=[N+]([O-])c1cc(Cl)c(Oc2cc(Cl)c(Br)cc2Cl)cc1NCc1ccccc1 | 157
20 | CCCCCCCCC(=O)Oc1ccc(-c2ccc(C#N)cc2)cc1 | 43.2 to 43.6
21 | COc1ccc(Oc2ccc(S(C)(=O)=O)cc2)cc1 | 152 to 153
22 | CC(C)(C)c1cc(-n2nc3ccc(S(=O)c4ccccc4)cc3n2)c(O)c(C(C)(C)C)c1 (stereo not drawn) | 152 to 154
23 | Cc1nc(NCCc2ccccc2)c2c(n1)N(c1ccccc1)CC2 | 105 to 106
24 | Cc1ccc(Cn2[nH]c(N)cc2=O)cc1 | 149
25 | O=C(O)CCNc1ccc(-c2ccc3nnn(Cc4ccc5ncccc5c4)c3n2)cc1F | 132 to 135

Row | SMILES | melting point [°C]
26 | CCn1cc(Cl)nc(S(=O)(=O)CC(=O)Nc2ccccc2)c1=O | 178 to 180
27 | O=C(CCC(C(=O)O)N1C(=O)c2cccc(NCc3ccco3)c2C1=O)Nc1ccccc1 (stereo not drawn) | 146 to 148
28 | Cc1c(NC(=O)N2CCC(c3ccc(Cl)cc3)CC2)ccc2cc(CN3CCCC3)cnc12 | 203 to 205
29 | CCOC(=O)CSc1nc(O)c(C)c(O)n1 | 211 to 214
30 | O=C(OC1CCCCCC1)c1ncn2c1[C@@H]1CCCN1C(=O)c1c(Cl)cccc1-2 | 179 to 180
31 | CN(C(=N)Nc1ncccc1OCc1c(F)cccc1F)c1ccc(Cl)cc1 | 100 to 102
32 | C1=CNC=c2ccccc2=C1 | 128
33 | CCOC(=O)c1cn(CC)c2nc(N3CCN(c4ccccc4)CC3)ncc2c1=O | 186
34 | CC(=O)OCC(=O)C1=CCC2C3CCC4=CC(=O)C=CC4(C)C3C(O)CC12C (stereo not drawn) | 203 to 205
35 | CN1CCN(c2ncc(-c3ccc(Cl)cc3Cl)c(N)n2)CC1 | 137
36 | CC(C)OC(=O)c1cc(N)c(F)c(F)n1 | 167 to 168
37 | N#Cc1ccc(-c2cccc(-c3nc4cc(C#N)ccc4[nH]3)c2)nc1 | 281 to 282
38 | CCC(CC)Nc1nc2c(c(-c3c(C)cc(C)cc3C)cn2C)c(=O)n1C | 174 to 176
39 | Cc1nc(N2C[C@H](C)N(Cc3ccc(F)cc3)C2=O)sc1C(N)=O | 185 to 186
40 | COC(=O)c1cc(N)c(C(C)(C)C)c(N)c1 | 71 to 73
41 | CN1C(=O)CC[C@]2(C)c3ccc(-c4ccc(S(C)(=O)=O)cc4)cc3CC[C@@H]12 | 229
42 | CC(C)(CCCC(=O)O)c1cc(C(=O)O)c(O)c(C(C)(C)CCCC(=O)O)c1 | 161 to 163
43 | COC(=O)CNC(=S)n1nc(-c2ccc(Cl)cc2)nc1N | 142 to 145
44 | C#CCn1nnnc1SC(c1ccccc1)c1ccccc1 | 92
45 | Cc1c(C)c2c(c(C)c1N)CC(C)(CN1CCN(CC(c3ccccc3)c3ccccc3)CC1)O2 (stereo not drawn) | 130 to 132
46 | Nc1sc2c(c1C(=O)c1ccco1)CCCC2 | 121 to 122
47 | C[Si](C)(C)CCc1cn(-c2c(Cl)cc(C(F)(F)F)cc2Cl)nc1C#N | 128 to 129
48 | N#Cc1cccnc1N1CCN(CC(=O)Nc2cc(F)cc(C(F)(F)F)c2)CC1 | 108 to 110
49 | CCCOc1ccc(S(=O)(=O)N2CCN(CC)C(C(=O)OCC)C2)cc1-c1nc2cc3nc[nH]c3cc2c(=O)[nH]1 (stereo not drawn) | 158 to 163
50 | Cc1cc(N2CCNCC2)ccc1NS(C)(=O)=O | 79 to 81

Row | SMILES | melting point [°C]
51 | CC(C)(C)OC(=O)c1nc(-c2ccc(Cl)cc2Cl)n(-c2ccc(Cl)cc2)c1S(C)(=O)=O | 130
52 | O=C(Cc1ccccc1)C(C[N+](=O)[O-])c1ccccc1 (stereo not drawn) | 99 to 100
53 | C[C@@H]1C(=O)N(C(=O)N2CCOCC2)Cc2ccccc2[C@@H]1C (relative stereo) | 184 to 185
54 | CCN1CCc2cc(OC)c(OC)cc2C1C1CC(C(=O)O)CCC12c1cc(OC)c(OC)cc1CCN2CC (stereo not drawn) | 124 to 126
55 | O=C1COc2cc3[nH]c(C(=O)N4CCC(Cc5ccccc5)CC4)cc3cc2N1 | 225 to 231
56 | C#Cc1nc(-c2ccco2)c2ncn(Cc3ccc(OC)cc3)c2n1 | 155
57 | CNC(=O)c1cc(C(=O)O)c(Nc2ccc(I)cc2C)c(F)c1F | 254 to 259
58 | COCCN(C)c1nnc(-c2ccc(-c3ccccc3)nc2)n1-c1ccccc1C#N | 148 to 149
59 | CS(=O)(=O)c1ccc(Oc2cc(OCc3cccc(Cl)n3)c3[nH]c(C4=NCC(CCO)S4)cc3c2)cc1 (stereo not drawn) | 93 to 94
60 | CCOC(=O)c1ccc2cc(N)ccn2c1=O | > 250
61 | Cc1cccc(N2CCN(CCCCc3ccc(C(CCC(=O)O)=NO)cc3)CC2)c1 | 175 to 177
62 | CC(C)(C)[Si](C)(C)Oc1ccc(NC(=O)CCl)cc1 | 107 to 108
63 | O=C(c1ccccc1F)C1CCN(CCc2c[nH]c3ccccc23)CC1 | 106 to 108
64 | CCCCc1nn(-c2cc(N)ccc2Cl)c(=O)n1Cc1ccc(-c2ccccc2S(=O)(=O)NC(=O)OC(C)(C)C)cc1F | 208 to 210
65 | CC(C)(C)NCC(O)c1ccc(N)c(C#N)c1F (stereo not drawn) | 150 to 151
66 | COc1ccc(Nc2cc(-c3ccccc3)nc(NC3CCC(O)CC3)n2)cc1Cl (stereo not drawn) | 293 to 295
67 | CC(C)(C)c1ccc2c(C#N)ccc(C#N)c2c1 | 58 to 59
68 | Cc1cccc(N2CCN(CCCc3ccc(C4CCC(=O)N4)cc3)CC2)c1 (stereo not drawn) | 87 to 89
69 | Fc1ccc(Cc2ccc(NC3=NCCN3)cc2)cc1 | 110 to 112
70 | CCOC(=O)c1cn(CC)c2nc(N3CCCC3)ncc2c1=O | 202
71 | Oc1cc(N2CCCCC2)c(Cl)cc1CCBr | 115 to 116
72 | CCOc1ccccc1C1=NC(=O)C2=NC=NC2=N1 | 276 to 277
73 | COc1ccc(CCN(C)CCOc2ccc(NC(=O)c3cccc4c3Nc3ccccc3S4)cc2)cc1OC | 90
74 | CN1Cc2c(C(N)=O)ncn2-c2ccc(Cl)cc2C1=O | 275 to 277
75 | O=c1[nH]cnc2cc3c(cc12)OCCO3 | 275

Row | SMILES | melting point [°C]
76 | CC(C)(C)CNc1nc(C(=O)C(=O)c2ccccc2)ccc1[N+](=O)[O-] | 88 to 90
77 | CCOC(=O)N1CCCN(c2nc3ccccc3[nH]2)CC1 | 161 to 162
78 | CCN1C(=O)N(c2cc(OC)cc(OC)c2F)Cc2cnc(NC3CCC(O)CC3)nc21 (stereo not drawn) | 198 to 204
79 | CC(C)c1ccc(N(Cc2cnn(CC(F)(F)F)c2)C(=O)C2CCCc3c(O)cccc32)cn1 (stereo not drawn) | 128
80 | c1cn2cc(-c3cnc4cc[nH]c4c3)cc(Nc3cc4n(n3)CCOC4)c2n1 | 192 to 195
81 | O=C(Nc1cccc(OCCCN2CCOCC2)c1)C12CC3CC(CC(C3)C1)C2 | 160 to 164
82 | CCN1CCc2ccc(C(=O)CCC(=O)N3CCC(c4ccc(Cl)cc4)CC3)cc2C1 | 115 to 116
83 | COCCOc1ccc(/C=C/COC(=O)NS(=O)(=O)N2CCCC2)c(Oc2ncc(C(F)(F)F)cc2Cl)c1 | 123 to 124
84 | CC(C)(C)c1cc(C[C@@H]2N[C@@H](c3ccccc3)[C@@H](c3ccccc3)OC2=O)ccc1O | 76 to 80
85 | O=C(NCCCCN1CCC(c2ccc3c(c2OCCO)CCCC3)CC1)c1ccc(-c2ccc(Cl)cc2)cc1 | 162
86 | CCCc1c(OCCCCCCc2cc(O)c(O)c(C(C)C)c2)ccc(C(=O)O)c1O | 138 to 140
87 | O=c1c(-c2ccccc2)c(-c2ccccc2)sn1-c1ccccc1 | 175 to 176
88 | O=C1c2ccccc2C(=O)N1CCN1CCCC1c1cccc(O)c1 (stereo not drawn) | 172 to 175
89 | Nc1ccc(OC2CCN(c3ccncc3)CC2)cc1 | 209 to 210
90 | OCCNc1c2c(nc3cn[nH]c13)CCCC2 | 205 to 210
91 | CCOC(=O)c1cnn(-c2cccc(Cl)c2)c1C(N)=O | 132
92 | CSC1C(O)C(CO)OC1n1ccc(NC(=O)c2ccccc2)nc1=O (stereo not drawn) | 193 to 194
93 | CCCCOCCOc1ccc(-c2ccc3c(c2)C=C(C(=O)OC)CCN3c2ccccc2)cc1 | 80 to 82
94 | Nc1cc(CCC(=O)NC2CCc3ccccc32)ccc1O (stereo not drawn) | 130 to 131
95 | CS(=O)(=O)Oc1ccc(S)cc1 | 66 to 68
96 | O=C(NC1CCCC1)NS(=O)(=O)c1cccc(Cl)c1Cl | 202 to 207
97 | O=C1c2cc3ccccc3cc2OC12CC2 | 127 to 129
98 | CCCCC(CC(=O)Nc1cc(C(N)=O)ccc1C(C)(C)C)c1ccc(OCCCOC)cc1OC (stereo not drawn) | 157 to 162
